Data from BindingDB's records for doi:10.1016/j.bmc.2005.09.055 (Uk Centre For Cancer Therapeutics, 2006).

What was measured:
[1] = biological target: RAC-beta serine/threonine-protein kinase (Homo sapiens, UniProt P31751); experiment: PKB In Vitro Enzyme Assay
[2] = biological target: cAMP-dependent protein kinase catalytic subunit alpha (Bos taurus, UniProt P00517); experiment: PKA In Vitro Enzyme Assay

Chain of RAC-beta serine/threonine-protein kinase (P31751 whole entry): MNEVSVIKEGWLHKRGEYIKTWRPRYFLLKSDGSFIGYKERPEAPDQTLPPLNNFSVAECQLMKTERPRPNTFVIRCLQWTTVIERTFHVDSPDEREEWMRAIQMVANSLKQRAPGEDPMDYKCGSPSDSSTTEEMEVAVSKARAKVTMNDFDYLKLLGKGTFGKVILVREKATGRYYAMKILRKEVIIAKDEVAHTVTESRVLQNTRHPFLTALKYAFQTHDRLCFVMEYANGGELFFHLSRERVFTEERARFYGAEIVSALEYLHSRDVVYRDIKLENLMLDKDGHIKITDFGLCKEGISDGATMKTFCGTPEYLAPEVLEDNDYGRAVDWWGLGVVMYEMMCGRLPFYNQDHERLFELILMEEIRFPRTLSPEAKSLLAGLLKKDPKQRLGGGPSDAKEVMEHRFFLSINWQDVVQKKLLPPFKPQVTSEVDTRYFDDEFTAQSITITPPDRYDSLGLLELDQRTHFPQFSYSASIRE

SMILES	IC50 ([1]; pH 7.2, 22 °C)	IC50 [1]	other results
COc1ccccc1COCCNCCNS(=O)(=O)c1cccc2cnccc12 [N-[2-({2-[(2-methoxyphenyl)methoxy]ethyl}amino)ethyl]isoquinoline-5-sulfonamide]	6600 nM	–	–
O=S(=O)(NC1CCNCC1)c1cccc2cnccc12 [N-(piperidin-4-yl)isoquinoline-5-sulfonamide]	8700 nM	–	IC50 ([2]; pH 7.2, 22 °C): 3900 nM
N[C@H]1CC[C@H](NS(=O)(=O)c2cccc3cnccc23)CC1 [Isoquinoline-5-sulfonic acid trans-(4-aminocyclohexyl)amide]	–	8100 nM	IC50 [2]: 5700 nM
O=S(=O)(NC[C@@H]1C[C@H](OCc2ccccc2)CN1)c1cccc2cnccc12 [Isoquinoline-5-sulfonic acid (2S,4S)-(4-(benzyloxy)pyrrolidin-2-yl-methyl)amide]	–	3400 nM	–
O=S(=O)(NC[C@@H]1C[C@H](OCc2ccc(Cl)cc2)CN1)c1cccc2cnccc12 [N-{[(2S,4S)-4-[(4-chlorophenyl)methoxy]pyrrolidin-2-yl]methyl}isoquinoline-5-sulfonamide]	–	480 nM	IC50 [2]: 170 nM
Cc1cncc2cccc(S(=O)(=O)N[C@@H]3CN[C@H](COCc4ccc(Cl)cc4)C3)c12 [N-[(3S,5S)-5-{[(4-chlorophenyl)methoxy]methyl}pyrrolidin-3-yl]-4-methylisoquinoline-5-sulfonamide]	–	2600 nM	IC50 [2]: 320 nM
O=S(=O)(N[C@@H]1CN[C@H](COCc2ccc(Cl)cc2)C1)c1cccc2cnccc12 [N-[(3S,5S)-5-{[(4-chlorophenyl)methoxy]methyl}pyrrolidin-3-yl]isoquinoline-5-sulfonamide]	–	780 nM	IC50 [2]: 420 nM
O=S(=O)(NC[C@@H]1CCCN1)c1cccc2cnccc12 [N-[(2S)-pyrrolidin-2-ylmethyl]isoquinoline-5-sulfonamide]	–	39000 nM	–
O=S(=O)(c1cccc2cnccc12)N1CCNCC1 [Isoquinoline-5-sulfonic acid piperazin-1 ylamide]	23000 nM	–	–
O=S(=O)(N[C@H]1CC[C@H](NCc2ccccc2)CC1)c1cccc2cnccc12 [N-[4-(benzylamino)cyclohexyl]isoquinoline-5-sulfonamide]	–	6600 nM	–
NCCCNS(=O)(=O)c1cccc2cnccc12 [N-(3-aminopropyl)isoquinoline-5-sulfonamide]	4800 nM	–	–
COc1cccc(COCCNCCNS(=O)(=O)c2cccc3cnccc23)c1 [Isoquinoline-5-sulfonic acid (2-(2-(3-methoxybenzyloxy)ethylamino)ethyl)amide]	2200 nM	–	–
Cc1cccc(COCCNCCNS(=O)(=O)c2cccc3cnccc23)c1 [N-[2-({2-[(3-methylphenyl)methoxy]ethyl}amino)ethyl]isoquinoline-5-sulfonamide]	1100 nM	–	–
O=S(=O)(NC1CCNC1)c1cccc2cnccc12 (stereo unspecified) [Isoquinoline-5-sulfonic acid pyrrolidin-3-ylamide]	–	3900 nM	–
Cc1ccccc1COCCNCCNS(=O)(=O)c1cccc2cnccc12 [N-[2-({2-[(2-methylphenyl)methoxy]ethyl}amino)ethyl]isoquinoline-5-sulfonamide]	570 nM	–	–
O=S(=O)(NCC1CCNCC1)c1cccc2cnccc12 [Isoquinoline-5-sulfonic acid (piperidin-4-ylmethyl)amide]	–	57000 nM	–
O=S(=O)(NC[C@@H]1C[C@@H](OCc2ccc(Cl)cc2)CN1)c1cccc2cnccc12 [Isoquinoline-5-sulfonic acid (2S,4R)-(4-(4-chlorobenzyloxy)pyrrolidin-2-yl-methyl)amide]	–	1700 nM	IC50 [2]: 400 nM
CNCCNS(=O)(=O)c1cccc2cnccc12 [N-[2-(methylamino)ethyl]isoquinoline-5-sulfonamide]	–	7600 nM	–
O=S(=O)(NCCNCCOCc1ccccc1)c1cccc2cnccc12 [N-(2-{[2-(benzyloxy)ethyl]amino}ethyl)isoquinoline-5-sulfonamide]	1170 nM	–	–
Cc1ccc(COCCNCCNS(=O)(=O)c2cccc3cnccc23)cc1 [Isoquinoline-5-sulfonic acid (2-(2-(4-methylbenzyloxy)ethylamino)ethyl)amide]	1530 nM	–	–
O=S(=O)(NCCNCCOCc1ccccc1Cl)c1cccc2cnccc12 [N-[2-({2-[(2-chlorophenyl)methoxy]ethyl}amino)ethyl]isoquinoline-5-sulfonamide]	960 nM	–	IC50 ([2]; pH 7.2, 22 °C): 1000 nM
O=S(=O)(NCCNCCOCc1cccc(Cl)c1)c1cccc2cnccc12 [Isoquinoline-5-sulfonic acid (2-(2-(3-chlorobenzyloxy)ethylamino)ethyl)amide]	370 nM	–	IC50 ([2]; pH 7.2, 22 °C): 410 nM
O=S(=O)(NC[C@H]1CC[C@@H](COCc2ccc(Cl)cc2)N1)c1cccc2cnccc12 [Isoquinoline-5-sulfonic acid (2R*,5S*)-(5-(4-chlorobenzyloxymethyl)pyrrolidin-2-yl-methyl)amide]	–	1700 nM	–
O=S(=O)(N[C@H]1CN[C@H](COCc2ccc(Cl)cc2)C1)c1cccc2cnccc12 [N-[(3R,5S)-5-{[(4-chlorophenyl)methoxy]methyl}pyrrolidin-3-yl]isoquinoline-5-sulfonamide]	–	5200 nM	–
O=S(=O)(NCCNCCOCc1ccc(Cl)c(Cl)c1)c1cccc2cnccc12 [Isoquinoline-5-sulfonic acid (2-(2-(3,4-dichlorobenzyloxy)ethylamino)ethyl)amide]	210 nM	–	–
COc1ccc(COCCNCCNS(=O)(=O)c2cccc3cnccc23)cc1 [N-[2-({2-[(4-methoxyphenyl)methoxy]ethyl}amino)ethyl]isoquinoline-5-sulfonamide]	2900 nM	–	–
O=c1[nH]ccc2c(S(=O)(=O)N[C@@H]3CN[C@H](COCc4ccc(Cl)cc4)C3)cccc12 [N-[(3S,5S)-5-{[(4-chlorophenyl)methoxy]methyl}pyrrolidin-3-yl]-1-hydroxyisoquinoline-5-sulfonamide]	–	520 nM	IC50 [2]: 1300 nM
